Where a name gives a salt, the structure may show the parent alone.
Experiment: Stability test in solution (pH 1.2 and pH 6.5)
Type: physicochemical
Settings: 1 hour; for Compound's percent residue (%) pH 1.2: hydrochloric acid solution pH 1.2, 37° C.; for Compound's percent residue (%) pH 6.5: 20 mM phosphate buffer pH 6.5, 37° C.
Experimental: Test 2: Stability Test in Solution
A test to determine the stability of Inventive Compounds (I-A) or (I) in a hydrochloric acid solution (pH 1.2) and 20 mM phosphate buffer (pH 6.5) was conducted in accordance with the following method.
A compound was dissolved in a hydrochloric acid solution (pH 1.2) containing hydrochloric acid and sodium chloride or a 20 mM phosphate buffer (pH 6.5) containing disodium hydrogenphosphate, sodium dihydrogenphosphate and sodium chloride to prepare a solution with a concentration of about 50 ng/mL (near the saturated concentration when the compound was not dissolved). The solution was incubated at 37° C. for 1 hour and the compound's concentration before and after the incubation was quantified by high-performance liquid chromatography to calculate the percent residue of the compound. Compounds having low solubility were assessed as being not applicable.
The percent residues of representative compounds in the hydrochloric acid solution (pH 1.2) and the 20 mM phosphate buffer (pH 6.5) are shown in the following Table 2.

SMILES	Compound's percent residue (%) pH 1.2	Compound's percent residue (%) pH 6.5
CC(C)[C@@H]1CC[C@@H](C)C[C@H]1OC(=O)O[C@H](C)OC(=O)[C@@]1(N)[C@H]2[C@@H](C[C@H]1OCc1ccc(F)c(F)c1)[C@]2(F)C(=O)O [Example 8, (1R,2R,3R,5R,6R)-2-amino-3-[(3,4-difluorophenyl)methoxy]-6-fluoro-2-({(1R)-1-[({[(1R,2S,5R)-5-methyl-2-(propan-2-yl)cyclohexyl]oxy}carbonyl)oxy]ethoxy}carbonyl)bicyclo[3.1.0]hexane-6-carboxylic acid]	97%	–
CC(C)(C)C(=O)OCOC(=O)[C@@]1(N)[C@H]2[C@@H](C[C@H]1OCc1ccc(F)cc1)[C@]2(F)C(=O)O [Example 35, (1R,2R,3R,5R,6R)-2-amino-2-({[(2,2-dimethylpropanoyl)oxy]methoxy}carbonyl)-6-fluoro-3-[(4-fluorophenyl)methoxy]bicyclo[3.1.0]hexane-6-carboxylic acid]	100%	97%
CCCO[C@@H]1C[C@@H]2[C@H]([C@]1(N)C(=O)OC(C)OC(=O)O[C@@H]1C[C@@H]3CC[C@@]1(C)C3(C)C)[C@@]2(F)C(=O)O (single isomer, unassigned) [Example 18-A]	107%	103%
N[C@]1(C(=O)OCOC(=O)C2CCCCC2)[C@H]2[C@@H](C[C@H]1OCc1ccc(F)cc1)[C@]2(F)C(=O)O [Example 37, (1R,2R,3R,5R,6R)-2-amino-2-({[(cyclohexanecarbonyl)oxy]methoxy}carbonyl)-6-fluoro-3-[(4-fluorophenyl)methoxy]bicyclo[3.1.0]hexane-6-carboxylic acid]	102%	96%
CC(C)[C@H](N)C(=O)OCOC(=O)[C@@]1(N)[C@H]2[C@@H](C[C@H]1OCc1ccc(F)cc1)[C@]2(F)C(=O)O [Example 6, (1R,2R,3R,5R,6R)-2-Amino-6-fluoro-3-[(4-fluorophenyl)methoxy]-2-{[(L-valyloxy)methoxy]carbonyl}bicyclo[3.1.0]hexane-6-carboxylic acid dihydrochloride]	99%	11%
CCCO[C@@H]1C[C@@H]2[C@H]([C@]1(N)C(=O)O[C@@H](C)OC(=O)O[C@@H]1C[C@H](C)CC[C@H]1C(C)C)[C@@]2(F)C(=O)O [Example 13, (1R,2R,3R,5R,6R)-2-amino-6-fluoro-2-({(1R)-1-[({[(1R,2S,5R)-5-methyl-2-(propan-2-yl)cyclohexyl]oxy}carbonyl)oxy]ethoxy}carbonyl)-3-propoxybicyclo[3.1.0]hexane-6-carboxylic acid]	98%	98%
CC(OC(=O)OC1CCCCC1)OC(=O)[C@@]1(N)[C@H]2[C@@H](C[C@H]1OCc1ccc(F)cc1)[C@]2(F)C(=O)O (stereo partly drawn) [Example 5, (1R,2R,3R,5R,6R)-2-Amino-2-[(1-{[(cyclohexyloxy)carbonyl]oxy}ethoxy)carbonyl]-6-fluoro-3-[(4-fluorophenyl)methoxy]bicyclo[3.1.0]hexane-6-carboxylic acid]	100%	98%
C[C@@H](OC(=O)C12CC3CC(CC(C3)C1)C2)OC(=O)[C@@]1(N)[C@H]2[C@@H](C[C@H]1OCc1ccc(F)c(F)c1)[C@]2(F)C(=O)O [Example 11, (1R,2R,3R,5R,6R)-2-Amino-3-[(3,4-difluorophenyl)methoxy]-6-fluoro-2-({(1S)-1-[(tricyclo[3.3.1.1^3,7]decane-1-carbonyl)oxy]ethoxy}carbonyl)bicyclo[3.1.0]hexane-6-carboxylic acid]	96%	95%
CC(C)[C@@H]1CC[C@@H](C)C[C@H]1OC(=O)O[C@H](C)OC(=O)[C@@]1(N)[C@H]2[C@@H](C[C@H]1OCc1cccc(Cl)n1)[C@]2(F)C(=O)O [Example 33, (1R,2R,3R,5R,6R)-2-amino-3-[(6-chloropyridin-2-yl)methoxy]-6-fluoro-2-({(1R)-1-[({[(1R,2S,5R)-5-methyl-2-(propan-2-yl)cyclohexyl]oxy}carbonyl)oxy]ethoxy}carbonyl)bicyclo[3.1.0]hexane-6-carboxylic acid]	96%	97%
C[C@@H](OC(=O)C12CC3CC(CC(C3)C1)C2)OC(=O)[C@@]1(N)[C@H]2[C@@H](C[C@H]1OCc1ccc(F)cc1)[C@]2(F)C(=O)O [Example 4, (1R,2R,3R,5R,6R)-2-Amino-6-fluoro-3-[(4-fluorophenyl)methoxy]-2-({(1S)-1-[(tricyclo[3.3.1.1^3,7]decane-1-carbonyl)oxy]ethoxy}carbonyl)bicyclo[3.1.0]hexane-6-carboxylic acid]	98%	98%
C[C@@H](OC(=O)C12CC3CC(CC(C3)C1)C2)OC(=O)[C@@]1(N)[C@H]2[C@@H](C[C@H]1OC1CCCC1)[C@]2(F)C(=O)O [Example 30, (1R,2R,3R,5R,6R)-2-amino-3-(cyclopentyloxy)-6-fluoro-2-({(1S)-1-[(tricyclo[3.3.1.1^3,7]decane-1-carbonyl)oxy]ethoxy}carbonyl)bicyclo[3.1.0]hexane-6-carboxylic acid]	100%	102%
C[C@@H](OC(=O)C12CC3CC(CC(C3)C1)C2)OC(=O)[C@@]1(N)[C@H]2[C@@H](C[C@H]1OCc1ccc(Cl)cn1)[C@]2(F)C(=O)O [Example 26, (1R,2R,3R,5R,6R)-2-amino-3-[(5-chloropyridin-2-yl)methoxy]-6-fluoro-2-({(1S)-1-[(tricyclo[3.3.1.1^3,7]decane-1-carbonyl)oxy]ethoxy}carbonyl)bicyclo[3.1.0]hexane-6-carboxylic acid]	97%	94%
C[C@H](OC(=O)C12CC3CC(CC(C3)C1)C2)OC(=O)[C@@]1(N)[C@H]2[C@@H](C[C@H]1OCc1ccc(F)c(F)c1)[C@]2(F)C(=O)O [Example 10, (1R,2R,3R,5R,6R)-2-Amino-3-[(3,4-difluorophenyl)methoxy]-6-fluoro-2-({(1R)-1-[(tricyclo[3.3.1.1^3,7]decane-1-carbonyl)oxy]ethoxy}carbonyl)bicyclo[3.1.0]hexane-6-carboxylic acid]	104%	107%
CC(OC(=O)O[C@H]1C[C@@H](C)CC[C@@H]1C(C)C)OC(=O)[C@@]1(N)[C@H]2[C@@H](C[C@H]1OCc1ccc(F)cc1)[C@]2(F)C(=O)O (stereo partly drawn) [Example 16-B, (1R,2R,3R,5R,6R)-2-Amino-6-fluoro-3-[(4-fluorophenyl)methoxy]-2-({1-[({[(1S,2R,5S)-5-methyl-2-(propan-2-yl)cyclohexyl]oxy}carbonyl)oxy]ethoxy}carbonyl)bicyclo[3.1.0]hexane-6-carboxylic acid]	101%	93%
C[C@@H](OC(=O)C12CC3CC(CC(C3)C1)C2)OC(=O)[C@@]1(N)[C@H]2[C@@H](C[C@H]1OCc1ccc(Cl)nc1)[C@]2(F)C(=O)O [Example 27, (1R,2R,3R,5R,6R)-2-amino-3-[(6-chloropyridin-3-yl)methoxy]-6-fluoro-2-({(1S)-1-[(tricyclo[3.3.1.1^3,7]decane-1-carbonyl)oxy]ethoxy}carbonyl)bicyclo[3.1.0]hexane-6-carboxylic acid]	100%	101%
COc1cc([C@@H](C)O[C@@H]2C[C@@H]3[C@H]([C@]2(N)C(=O)O[C@@H](C)OC(=O)C24CC5CC(CC(C5)C2)C4)[C@@]3(F)C(=O)O)ccc1F [Example 25, (1R,2R,3R,5R,6R)-2-amino-6-fluoro-3-[(1R)-1-(4-fluoro-3-methoxyphenyl)ethoxy]-2-({(1S)-1-[(tricyclo[3.3.1.1^3,7]decane-1-carbonyl)oxy]ethoxy}carbonyl)bicyclo[3.1.0]hexane-6-carboxylic acid]	98%	99%
C[C@H](OC(=O)C12CC3CC(CC(C3)C1)C2)OC(=O)[C@@]1(N)[C@H]2[C@@H](C[C@H]1OCc1ccc(F)cc1)[C@]2(F)C(=O)O [Example 3, (1R,2R,3R,5R,6R)-2-Amino-6-fluoro-3-[(4-fluorophenyl)methoxy]-2-({(1R)-1-[(tricyclo[3.3.1.1^3,7]decane-1-carbonyl)oxy]ethoxy}carbonyl)bicyclo[3.1.0]hexane-6-carboxylic acid]	93%	–
CCCO[C@@H]1C[C@@H]2[C@H]([C@]1(N)C(=O)OC(C)OC(=O)O[C@H]1C[C@H]3CC[C@]1(C)C3(C)C)[C@@]2(F)C(=O)O (stereo partly drawn) [Example 20, (1R,2R,3R,5R,6R)-2-Amino-6-fluoro-3-propoxy-2-({1-[({[(1R,2S,4R)-1,7,7-trimethylbicyclo[2.2.1]heptan-2-yl]oxy}carbonyl)oxy]ethoxy}carbonyl)bicyclo[3.1.0]hexane-6-carboxylic acid]	106%	100%
